How the values were obtained:
type I procollagen = experiment: Type I procollagen assay (ELISA) in human normal fibroblasts; type: cell-based; conditions: 10 ng/Ml; positive control set to 100
Experimental: Human normal fibroblasts were cultured in a 12-well culture plate at a concentration of 10^5 cells/well, and then the medium was replaced with each of media containing 1 ppm, 10 ppm and 50 ppm of the Chamaecyparis obtusa polysaccharide obtained in Preparation Example 1. As a positive control, TGF-β (Human Transforming Growth Factor-β1, Roche Co.) was used. At 3 days of culture, the cells were harvested, and the amount of type I procollagen produced in the cells was measured by an ELISA assay. Each of the measurement values was calculated relative to 0 for a control containing no Chamaecyparis obtusa polysaccharide and 100 for the positive control, and the results of the calculation are shown in Table 1 below.

[1] = tested on: MMP-1 (matrix metalloproteinase I); experiment: Inhibition of UV-B-induced MMP-1 biosynthesis in human normal fibroblasts (ELISA); type: cell-based; conditions: irradiated with UV-B 40 mJ/cm^2; 10 μM; 2 days; non-irradiated control 100, UV alone 152
Experimental: Human normal fibroblasts were cultured in a 12-well culture plate at a concentration of 10^5 cells/well, and then irradiated with 40 mJ/cm^2 of UV-B, after which the medium was replaced with a medium containing each of 1 ppm, 10 ppm and 50 ppm of the Chamaecyparis obtusa polysaccharide obtained in Preparation Example 1. At 2 days of culture, the cells were harvested, and the amount of MMP-1 (matrix metalloproteinase I) produced in the cells was measured by an ELISA assay. As a positive control, retinoic acid (RA, Sigma, USA) was used. Each of the measurement values was calculated relative to […] for a control containing no Chamaecyparis obtusa polysaccharide and which was not irradiated with UV-B. The results of the calculation are shown in Table 2 below.

[2] = tested on: C57BL/6 mouse melanocytes (Mel-Ab cells); experiment: Melanin production inhibitory effect using mouse melanocytes; type: cell-based; conditions: 72 h, 3 days
Experimental: Mouse melanocytes were used to examine the melanin production inhibitory effect of the Chamaecyparis obtusa polysaccharide of the present invention. First, C57BL/6 mouse melanocytes (Mel-Ab cells) (Dooley, T. P. et al, Skin pharmacol, 7, pp 188-200) were cultured in DMEM (Dulbeccos modified Eagles media), containing 10% fetal bovine serum, 100 nM 2-O-tetradecanoyphorbol-13-acetate and 1 nM cholera toxin, in conditions of 37° C. and 5% CO2. The cultured Mel-Ab cells were detached with 0.25% trypsin-EDTA and cultured in a 24-well culture plate at a concentration of 10^5 cells/well. Then, from 2 days of culture, each of 10 ppm, 50 ppm and 100 ppm of the Chamaecyparis obtusa polysaccharide was continuously added thereto and cultured for 3 days. Herein, arbutin was used as a positive control. Then, the media were removed, and the cells were washed with PBS and lysed with 1N sodium hydroxide. The lysed cells were measured for absorbance at 400 nm, and based on the measured absorbance, the inhibition (%) of melanin production was calculated according to the following equation 2. Inhibition (%) of melanin production=100−(absorbance of each test material/absorbance of control×100) [Equation 2]

transglutaminase = experiment: Expression of transglutaminase in human keratinocytes; type: cell-based; conditions: Ca^2+ 1.2 mM (positive control); relative to 100 for low calcium (0.03 mM) control
Experimental: Human skin cells were placed in a 96-well plate at a concentration of 5×10^4 cells/well and attached to the plate for 24 hours. The attached skin cells were treated with the test material, and after 2 days, the medium was removed, and the cells were stored in a refrigerator at […]. The cells were frozen and thawed twice, disrupted and treated with acetone:ethanol (1:1, v/v), stored at −20° C. The treated cells were left to stand at 4° C. for 30 minutes to immobilize the cells. Then, the cells were left to stand at room temperature to evaporate the organic solvent and were blocked with 1% bovine serum albumin. The blocked cells were treated with transglutaminase antibody (primary antibody) and HRP anti-mouse antibody (secondary antibody), and the color development of the cells was carried out by the addition of OPD (o-phenyldiamine). The expression level of transglutaminase in the cells was measured by measuring the absorbance at 490 nm, and the correction was carried out by measuring the background at 630 nm. A low calcium (0.03 mM)-treated group and a high calcium (1.2 mM)-treated group were used as a negative control group and a positive control group, respectively. Each of the measurement values was calculated relative to 100 for the negative control (low calcium concentration), and the results of the calculation are shown in Table 7 below.

human keratinocytes = experiment: Induction of differentiation of human keratinocytes (cornified envelop amount); type: cell-based; conditions: Ca^2+ 1.2 mM (positive control); relative to 100 for low calcium (0.03 mM) control
Experimental: The effect of the Chamaecyparis obtusa polysaccharide of the present invention on the promotion of cell differentiation was examined by measuring the amount of CE (cornified envelop) produced during differentiation of keratinocytes and a human keratinocyte cell line (HaCaT).
Primarily cultured human keratinocytes were placed in a culture flask and allowed to adhere to the bottom of the flask, and then calcium and the Chamaecyparis obtusa polysaccharide were added to the culture media at varying concentrations. The cells were cultured for 5 days to a confluency of about 70-80%. The cultured cells were harvested and washed with PBS (phosphate buffered saline), and then 1 ml of 10 mM Tris-HCl buffer (pH 7.4), containing 2% SDS (sodium dodecyl sulfate) and 20 mM DTT (dithiothreitol), was added to the cells. The cell solution was sonicated, boiled and centrifuged, and the resulting precipitate was suspended in 1 ml of PBS and measured for absorbance at 340 nm. Meanwhile, a portion of the solution after the sonication was taken and measured for its protein content, and the measured value was used as a standard for evaluating the degree of cell differentiation. […] Each of the measurement values was calculated relative to 100 for the negative control (low calcium concentration), and the results of the calculation are shown in Table 6 below.

[3] = tested on: TPA-induced mouse ear inflammation; experiment: TPA-induced mouse ear inflammation model; type: in vivo, ICR mice; conditions: 24 hours after TPA, polysaccharide 0.5% in 80% ethanol, indomethacin 0.5 mg/ear
Experimental: The tetradecanoyl phorbol acetate (TPA)-induced mouse ear inflammation model is an experimental method which is widely used to test the mechanism of action of inflammatory responses and the effect of inhibitors (De Young L M et al., Agents and Actions, 26; 335-341 (1989)). In order to confirm the inflammation inhibitory effect of the Chamaecyparis obtusa polysaccharide, 8-week-old male ICR mice (8 animals per group) were prepared. The test group was treated with TPA and applied with a solution of the Chamaecyparis obtusa polysaccharide dispersed in a 80% ethanol aqueous solution, the untreated group was applied with a 80% ethanol aqueous solution alone without treatment with TPA, the negative control group was treated with TPA and applied with a 80% ethanol aqueous solution alone, and the positive control group was treated with TPA and applied with 0.5 mg of indomethacine (Sigma, USA) in place of the Chamaecyparis obtusa polysaccharide. […] The mice of the untreated group, the negative control group and the positive control group were also treated as described above. At 24 hours after application of TPA, the mice were euthanized by cervical dislocation, and the left ear was sampled in a given area, and the weight thereof was measured. […] The inhibition (%) is calculated according to the following equation 4. […]

human skin = experiment: Whitening effect on UVB-darkened human skin (colorimeter); type: in vivo; conditions: UVB-darkened upper arm; 10 weeks of application; solvent control 0.51 ± 0.13
Experimental: In order to examine the whitening effect of the Chamaecyparis obtusa polysaccharide of the present invention on the human skin, the following test was carried out. First, on 12 healthy men as subjects, a 1.5-cm perforated opaque tape was attached to the upper arm portion of the subjects, and then the attached portion was radiated with UVB at a dose about 1.5-2 times the minimal erythema dose of each subject to induce skin darkening.
The color of the skin was measured with a colorimeter CR2002 (Japan, Minolta). Then, the difference (ΔL*) in skin color between the time point of initiation of application and the time point of completion of application (after 10 weeks) of each test material was calculated according to the following equation 3, and the results of the calculation are shown in Table 5 below.
Meanwhile, the skin whitening effect is evaluated by measuring the ΔL* value between the sample-applied portion and the control portion. […] Difference (ΔL*) skin color=L*value at the time of completion of application−L*value at the time of initiation of application [Formula 3]

Compound: TGF-β: Human Transforming Growth Factor-β1, Roche Co.; positive control
- Type I procollagen biosynthesis (%) (type I procollagen): 100%

Compound: CC1=C(/C=C/C(C)=C/C=C/C(C)=C/C(=O)O)C(C)(C)CCC1 [RA, retinoic acid]
- MMP-1 biosynthesis (%) [1]: 45%

Compound: OC[C@H]1O[C@@H](Oc2ccc(O)cc2)[C@H](O)[C@@H](O)[C@@H]1O [Arbutin, arbutin]
- inhibition at 100 ppm [2]: 52%

Compound: [Ca+2] [Ca^2+, calcium]
- Expression (%) of transglutaminase (transglutaminase): 138%
- Differentiation (%) of keratinocytes (human keratinocytes): 215%

Compound: COc1ccc2c(c1)c(CC(=O)O)c(C)n2C(=O)c1ccc(Cl)cc1 [Indomethacin, indomethacine]
- Inhibition (%) (mean) [3]: 92%
- Ear weight (mean ± SD) ([3]; untreated 6.64 ± 0.65, TPA alone 13.21 ± 2.49): 7.20 ± 0.57

Compound: Oc1ccc(O)cc1 [Hydroquinone, hydroquinone]
- Difference (ΔL*) in skin color (human skin): 1.89 ± 0.15

From US8557795B2, “Composition containing Chamaecyparis obtusa polysaccharides to be externally applied to the skin” (Amorepacific Corporation, priority 2009, dated 2013)
